From ChEMBL document CHEMBL6078611, “A potent GPX4 degrader to induce ferroptosis in HT1080 cells” (Eur J Med Chem, 2024)
Active and inactive are the calls of the source. No cut-off for these calls is given here.

Experiments:
HT-1080 [1] = assay: Antiproliferative activity against human HT-1080 cells assessed as reduction in cell viability incubated for 48 hrs by CCK-8 assay; type: functional, cell-based; conditions: HT-1080, 48 h
[2] = Cytotoxicity against HEK293T cells assessed as reduction in cell viability incubated for 48 hrs by CCK-8 assay; type: toxicity, cell-based, HEK-293T; conditions: human
[3] = target: T1, Baculoviral IAP repeat-containing protein 2/Phospholipid hydroperoxide glutathione peroxidase GPX4 (Homo sapiens, UniProt Q13490+P36969); assay: Protac activity at cIAP/GPX4 in human HT-1080 cells assessed as degradation of GPX4 at 3 uM incubated for 4 hrs by Western blot analysis; type: cell-based
Target sequence in this assay (P36969 whole entry, looked up): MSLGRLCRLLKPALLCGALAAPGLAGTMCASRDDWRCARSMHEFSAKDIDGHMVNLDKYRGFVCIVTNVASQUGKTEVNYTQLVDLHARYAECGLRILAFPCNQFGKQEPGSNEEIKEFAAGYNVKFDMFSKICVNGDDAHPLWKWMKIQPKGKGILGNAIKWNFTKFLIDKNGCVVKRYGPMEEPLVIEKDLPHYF
Target sequence in this assay (Q13490 whole entry, looked up): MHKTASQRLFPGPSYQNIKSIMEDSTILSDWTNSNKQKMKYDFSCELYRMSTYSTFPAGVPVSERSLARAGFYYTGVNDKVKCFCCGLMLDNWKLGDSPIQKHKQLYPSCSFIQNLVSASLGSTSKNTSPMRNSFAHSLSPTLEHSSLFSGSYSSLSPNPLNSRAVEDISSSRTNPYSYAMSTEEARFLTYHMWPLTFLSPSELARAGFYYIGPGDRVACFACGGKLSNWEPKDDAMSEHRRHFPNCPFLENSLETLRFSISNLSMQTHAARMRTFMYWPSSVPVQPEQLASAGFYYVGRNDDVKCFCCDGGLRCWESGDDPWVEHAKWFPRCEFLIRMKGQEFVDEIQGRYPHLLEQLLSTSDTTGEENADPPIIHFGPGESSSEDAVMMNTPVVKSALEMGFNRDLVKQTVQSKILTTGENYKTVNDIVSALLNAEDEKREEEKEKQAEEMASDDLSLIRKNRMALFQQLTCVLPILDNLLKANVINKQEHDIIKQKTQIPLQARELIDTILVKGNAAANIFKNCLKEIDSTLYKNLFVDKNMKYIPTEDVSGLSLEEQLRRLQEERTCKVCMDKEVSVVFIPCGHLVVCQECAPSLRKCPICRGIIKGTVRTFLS

HT-1080 [4] = assay: Antiproliferative activity against human HT-1080 cells assessed as reduction in cell viability at 7.5 uM incubated for 48 hrs in presence of DFOM by CCK-8 assay; type: functional, cell-based
[5] = target: T1, Baculoviral IAP repeat-containing protein 2/Phospholipid hydroperoxide glutathione peroxidase GPX4; assay: Protac activity at cIAP/GPX4 in human HT-1080 cells assessed as degradation of GPX4 at 5 uM preincubated with chloroquine for 4 hrs followed by compound addition and measured after 48 hrs by Western blot analysis; type: cell-based
Target sequence in this assay (P36969 whole entry, looked up): as the sequence (P36969 whole entry, looked up) above
Target sequence in this assay (Q13490 whole entry, looked up): as the sequence (Q13490 whole entry, looked up) above

Mitochondrial membrane [6] = assay: Induction of mitochondrial membrane potential loss in human HT-1080 cells at 10 uM incubated for 48 hrs in presence of DFOM by JC-1 staining based flow cytometry analysis; type: cell membranes
[7] = target: T1, Baculoviral IAP repeat-containing protein 2/Phospholipid hydroperoxide glutathione peroxidase GPX4; assay: Protac activity at cIAP/GPX4 in human HT-1080 cells assessed as degradation of GPX4 incubated for 48 hrs by Western blot analysis; type: cell-based
Target sequence in this assay (Q13490 whole entry): as the sequence (Q13490 whole entry, looked up) above
Target sequence in this assay (P36969 whole entry): as the sequence (P36969 whole entry, looked up) above

[8] = target: T1, Baculoviral IAP repeat-containing protein 2/Phospholipid hydroperoxide glutathione peroxidase GPX4; assay: Protac activity at cIAP/GPX4 in human HT-1080 cells assessed as degradation of GPX4 at 10 uM incubated for 48 hrs by Western blot analysis relative to control; type: cell-based
Target sequence in this assay (P36969 whole entry, looked up): as above
Target sequence in this assay (Q13490 whole entry, looked up): as the sequence (Q13490 whole entry, looked up) above

HT-1080 [9] = assay: Induction of ferroptosis in human HT-1080 cells assessed as lipid peroxide accumulation at 10 uM in presence of NAC by BODIPY 581/591C11 staining based analysis; type: functional, cell-based
Mitochondrial membrane [10] = assay: Induction of mitochondrial membrane potential loss in human HT-1080 cells at 10 uM incubated for 48 hrs in presence of NAC by JC-1 staining based flow cytometry analysis; type: cell membranes
HT-1080 [11] = assay: Antiproliferative activity against human HT-1080 cells assessed as reduction in cell viability at 7.5 uM incubated for 48 hrs in presence of Fer-1 by CCK-8 assay; type: functional, cell-based
HT-1080 [12] = assay: Induction of ferroptosis in human HT-1080 cells assessed as lipid peroxide accumulation at 10 uM in presence of Fer-1 by BODIPY 581/591C11 staining based analysis; type: functional, cell-based
[13] = target: T1, Baculoviral IAP repeat-containing protein 2/Phospholipid hydroperoxide glutathione peroxidase GPX4; assay: Protac activity at cIAP/GPX4 in human HT-1080 cells assessed as degradation of GPX4 at 5 uM measured upto 12 hrs after compound washout by Western blot analysis; type: cell-based
Target sequence in this assay (P36969 whole entry, looked up): as the sequence (P36969 whole entry, looked up) above
Target sequence in this assay (Q13490 whole entry, looked up): as the sequence (Q13490 whole entry, looked up) above

HT-1080 [14] = assay: Induction of ferroptosis in human HT-1080 cells assessed as lipid peroxide accumulation by BODIPY 581/591C11 staining based analysis; type: functional, cell-based; conditions: dose 0.6-10 µM
HEK-293T = assay: Cytotoxicity against HEK293T cells assessed as reduction in cell viability at 40 uM incubated for 48 hrs by CCK-8 assay; type: toxicity, cell-based; conditions: human
[15] = target: T1, Baculoviral IAP repeat-containing protein 2/Phospholipid hydroperoxide glutathione peroxidase GPX4; assay: Protac activity at cIAP/GPX4 in human HT-1080 cells assessed as degradation of GPX4 at 5 uM preincubated with RSL3 for 4 hrs followed by compound addition and measured after 48 hrs by Western blot analysis; type: cell-based
Target sequence in this assay (P36969 whole entry, looked up): as the sequence (P36969 whole entry, looked up) above
Target sequence in this assay (Q13490 whole entry, looked up): as the sequence (Q13490 whole entry, looked up) above

[16] = target: T1, Baculoviral IAP repeat-containing protein 2/Phospholipid hydroperoxide glutathione peroxidase GPX4; assay: Protac activity at cIAP/GPX4 in human HT-1080 cells assessed as degradation of GPX4 at 5 uM preincubated with MLN4924 for 4 hrs followed by compound addition and measured after 48 hrs by Western blot analysis; type: cell-based
Target sequence in this assay (P36969 whole entry, looked up): as the sequence (P36969 whole entry, looked up) above
Target sequence in this assay (Q13490 whole entry, looked up): as the sequence (Q13490 whole entry, looked up) above

Mitochondrial membrane [17] = assay: Induction of mitochondrial membrane potential loss in human HT-1080 cells incubated for 48 hrs by JC-1 staining based flow cytometry analysis; type: cell membranes; conditions: dose 0.6-10 µM
HT-1080 [18] = assay: Synergistic antiproliferative activity against human HT-1080 cells assessed as induction of cell death at 3.75 uM incubated for 48 hrs in presence of FeCl2 by CCK-8 assay; type: functional, cell-based
[19] = target: T1, Baculoviral IAP repeat-containing protein 2/Phospholipid hydroperoxide glutathione peroxidase GPX4; assay: Protac activity at cIAP/GPX4 in human HT-1080 cells assessed as degradation of GPX4 at 5 uM preincubated with MG132 for 4 hrs followed by compound addition and measured after 48 hrs by Western blot analysis; type: cell-based
HT-1080 [20] = assay: Antiproliferative activity against human HT-1080 cells assessed as induction of cell death incubated for 48 hrs in presence of Z-VAD-FMK by CCK-8 assay; type: functional, cell-based
HT-1080 [21] = assay: Induction of ferroptosis in human HT-1080 cells assessed as lipid peroxide accumulation at 10 uM in presence of DFOM by BODIPY 581/591C11 staining based analysis; type: functional, cell-based
[22] = target: T1, Baculoviral IAP repeat-containing protein 2/Phospholipid hydroperoxide glutathione peroxidase GPX4; assay: Protac activity at cIAP/GPX4 in human HT-1080 cells assessed as degradation of GPX4 at 5 uM preincubated with cIAP ligand B4 for 4 hrs followed by compound addition and measured after 48 hrs by Western blot analysis; type: cell-based
[23] = target: T1, Baculoviral IAP repeat-containing protein 2/Phospholipid hydroperoxide glutathione peroxidase GPX4; assay: Protac activity at cIAP/GPX4 in human HT-1080 cells assessed as degradation of GPX4 at 5 uM by Western blot analysis; type: cell-based; conditions: time 12-72 hrs
HT-1080 [24] = assay: Antiproliferative activity against human HT-1080 cells assessed as reduction in cell viability at 7.5 uM incubated for 48 hrs in presence of NAC by CCK-8 assay; type: functional, cell-based
HT-1080 [25] = assay: Induction of ferroptosis in human HT-1080 cells assessed as lipid peroxide accumulation at 10 uM in presence of FeCl2 by BODIPY 581/591C11 staining based analysis; type: functional, cell-based
HT-1080 [26] = assay: Protac activity at MDM2/GPX4 in human HT-1080 cells assessed as degradation of GPX4 at 10 uM by Western blot analysis relative to control; type: cell-based

## COC(=O)c1ccc([C@H]2c3[nH]c4ccccc4c3C[C@H](C(=O)OC)N2C(=O)CCl)cc1
HT-1080 [1]
  IC50: 1550 nM
[2]
  IC50 at 48 h: 10800 nM
[3]
  Activity: inactive

## COC(=O)[C@H](CC(C)C)NC(=O)[C@@H](O)[C@@H](Cc1ccccc1)NC(=O)CCCCCCCn1cc(CNC(=O)c2ccc([C@H]3c4[nH]c5ccccc5c4C[C@H](C(=O)OC)N3C(=O)CCl)cc2)nn1
HT-1080 [4]
  Activity: inactive
[5]
  Activity: inactive
Mitochondrial membrane [6]
  Activity: inactive
[7]
  DC50: 1680 nM
[8]
  Emax: 85%
HT-1080 [1]
  IC50: 2370 nM
HT-1080 [9]
  Activity: inactive
Mitochondrial membrane [10]
  Activity: inactive
HT-1080 [11]
  Activity: inactive
HT-1080 [12]
  Activity: inactive
[13]
  Activity: Active
HT-1080 [14]
  Activity: Dose-dependent-effect
HEK-293T
  Activity: Toxic
[15]
  Activity: inactive
[16]
  Activity: inactive
Mitochondrial membrane [17]
  Activity: Dose-dependent-effect
HT-1080 [18]
  Activity: Active
[19]
  Activity: inactive
HT-1080 [20]
  Activity: Active
HT-1080 [21]
  Activity: inactive
[22]
  Activity: inactive
[23]
  Activity: Time-dependent-effect
HT-1080 [24]
  Activity: inactive
HT-1080 [25]
  Activity: inactive

## COC(=O)[C@H]1Cc2c([nH]c3ccccc23)[C@H](c2ccc(C(=O)NCc3cn(CCOCCNC(=O)CN4CCN(C(=O)N5C(c6ccc(OC)cc6OC(C)C)=N[C@H](c6ccc(Cl)cc6)[C@@H]5c5ccc(Cl)cc5)CC4=O)nn3)cc2)N1C(=O)CCl
HT-1080 [26]
  Activity: 60%

## COC(=O)c1ccc([C@H]2c3[nH]c4ccccc4c3C[C@H](C(=O)NCc3cn(CCCCCC(=O)N[C@H](Cc4ccccc4)[C@H](O)C(=O)N[C@@H](CC(C)C)C(=O)OC)nn3)N2C(=O)CCl)cc1
[7]
  DC50: 4220 nM
[8]
  Emax: 75%
